Data on two molecules can be found in ChEMBL document CHEMBL3351589, “Novel chalcone derivatives as hypoxia-inducible factor (HIF)-1 inhibitor: synthesis, anti-invasive and anti-angiogenic properties” (Eur J Med Chem, 2015).

The source made the active and inactive calls. No cut-off for these calls is given here.

Series [1] in a line: Reduction of hypoxia-induced HIF-1 alpha expression in human Hep3B cells at 10 uM after 48 hrs by Western blotting analysis. The note with it: Hep 3B2. Format: functional, cell-based. (In western blotting, separated proteins are transferred to a membrane and probed.)
The nature of series [2]: Reduction of hypoxia-induced HIF-1 beta expression in human Hep3B cells at 10 uM after 48 hrs by Western blotting analysis. The settings on record: Hep 3B2. Format: functional, cell-based.
In series [3] the test system is HUVEC. The series is described as follows: Antiinvasive activity in HUVEC assessed as inhibition of VEGF-induced invasion after 30 mins by transwell assay. The note with it: Homo sapiens. Format: functional, cell-based.
The nature of series [4]: Reduction of hypoxia-induced VEGF mRNA expression in human Hep3B cells after 48 hrs by RT-PCR analysis. The settings on record: Hep 3B2. Format: functional, cell-based.
Series [5] has as its system HUVEC. Kind of series: Cytotoxicity against HUVEC at >20 uM after 12 hrs by MTT assay. Format: cell-based. The settings on record: human.
Series [6] in a line: Cytotoxicity against human Hep3B cells at >20 uM after 12 hrs by MTT assay. Format: cell-based. The settings on record: hep 3b2, 12 h. On the technique in general: Tetrazolium assays rely on reduction of a dye to a coloured formazan, in cell work by metabolically active cells.
Series [7] relates to HUVEC. Kind of series: Antiangiogenic activity in HUVEC assessed as inhibition of VEGF-induced tube formation after 30 mins by matrigel assay. Format: functional, cell-based. The settings on record: Homo sapiens.
Series [8] is described as follows: Reduction of hypoxia-induced HIF-1 beta expression in human Hep3B cells after 48 hrs by Western blotting analysis. Format: functional, cell-based. The note with it: Hep 3B2.
The test system of series [9] is Hep 3B2. Kind of series: Antitumor activity against human Hep3B cells xenografted in iv dosed Balb/c nude mouse assessed as inhibition of tumor growth after 11 days. Format: functional, organism-based.
For series [10], the system named is Hep 3B2. Kind of series: Antimigratory activity in human Hep3B cells assessed as inhibition of VEGF-induced migration at 0.8 to 20 uM by real time cell analysis. Format: functional, cell-based.
A short description of series [11]: Acute toxicity in Swiss mouse assessed as mortality rate at 100 mg/kg, iv after 14 days relative to control. The arrangement: dose 100 mg/kg, route intravenous. Format: organism-based. The note with it: in vivo.
Series [12] in a line: Reduction of hypoxia-induced VEGF expression in human Hep3B cells after 48 hrs by Western blotting analysis. Format: functional, cell-based. The note with it: Hep 3B2.
Series [13] can be described thus: Reduction of hypoxia-induced HIF-1 alpha expression in human Hep3B cells after 48 hrs by Western blotting analysis. The note with it: Hep 3B2. Format: functional, cell-based.
Series [14] concerns Mus musculus. Kind of series: Toxicity in Balb/c nude mouse xenografted with human Hep3B cells assessed as change in body weight at 2.5 to 5 mg/kg, iv. The arrangement: dose 2.5-5 mg/kg, route intravenous. Format: organism-based, Hep 3B2. The note with it: in vivo.
Series [15] has as its system Hep 3B2. The series is described as follows: Antitumor activity against human Hep3B cells xenografted in Balb/c nude mouse assessed as reduction in MMP-2 expression at 2.5 to 5 mg/kg, iv by immunohistochemical analysis. Format: functional, organism-based.
Series [16] concerns Hep 3B2. Kind of series: Antiinvasive activity in human Hep3B cells assessed as inhibition of VEGF-induced invasion after 30 mins by transwell assay. Format: functional, cell-based.
Series [17] deals with Hep 3B2. The series is described as follows: Antitumor activity against human Hep3B cells xenografted in Balb/c nude mouse assessed as reduction in microvessel density at 2.5 to 5 mg/kg, iv by immunohistochemical analysis. Format: functional, organism-based. For orientation: Xenograft models place foreign cells or tissue in a host animal.
Series [18] concerns HUVEC. The series is described as follows: Antimigratory activity in HUVEC assessed as inhibition of VEGF-induced migration at 0.8 to 20 uM by real time cell analysis. Format: functional, cell-based. The settings on record: Homo sapiens.
Series [19] relates to Mus musculus. The series is described as follows: Acute toxicity in Swiss mouse assessed as structural abnormality in lung at 300 mg/kg, iv after 14 days by histological analysis relative to control. Format: organism-based. Set-up: dose 300 mg/kg, route intravenous. The settings on record: in vivo, 336 h.
Series [20] in a line: Acute toxicity in Swiss mouse assessed as mortality rate at 300 mg/kg, iv after 14 days relative to control. Format: organism-based. Set-up: dose 300 mg/kg, route intravenous. The note with it: in vivo.
Series [21] can be described thus: Acute toxicity in Swiss mouse assessed as mortality rate at 200 mg/kg, iv after 14 days relative to control. Format: organism-based. Set-up: dose 200 mg/kg, route intravenous. The settings on record: in vivo.
Series [22] can be described thus: Acute toxicity in iv dosed Swiss mouse. Format: organism-based. The note with it: in vivo.
Series [23] deals with Mus musculus. Kind of series: Acute toxicity in Swiss mouse assessed as structural abnormality in kidney at 300 mg/kg, iv after 14 days by histological analysis relative to control. Set-up: dose 300 mg/kg, route intravenous. Format: organism-based. The settings on record: in vivo, 336 h.

As to `CC[C@@]1(O)C(=O)OCc2c1cc1n(c2=O)Cc2cc3c(CN(C)C)c(O)ccc3nc2-1`, the outcome in series [1] and in series [2] was Active.
For orientation: mortality means the percentage killed. Consider `COc1ccc(/C=C/C(=O)c2ccc3c(c2O)C=CC(C)(C)O3)cc1O`, for which the Activity result was “Dose-dependent effect” in series [3]; “Dose-dependent effect” in series [4]; “Non-toxic” in [5]; “Non-toxic” in series [6]; “Dose-dependent effect” in series [8]; “Dose-dependent effect” in series [12]. Further, the Activity entry in [13] is “Dose-dependent effect”; in [14] it was “Non-toxic”; in [16], “Dose-dependent effect”; in series [19], “Non-toxic”; in series [23], “Non-toxic”. The inhibition entry in [7] and in [9] was “Dose-dependent effect” throughout. The result in [10], in series [15], in series [17] and in series [18] was Active. Moreover, the mortality at 336 h was 0% in series [11], 16.7% in series [20] and 0% in series [21]. Also, in [22], the MTD was found to be 22 mg/kg.
